This is an account of results in the METLIN SMRT retention time set (Domingo-Almenara et al. 2019).

This data set can be described thus: gradient 5% acetonitrile 3 min, to 50% in 2 min, to 85% in 15 min, held 3 min, 100 µL/min. The settings on record: column: Zorbax Extend-C18 2.1 x 50 mm; eluents: water / acetonitrile, 0.1% formic acid. A digest of the protocol: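 Over 3 months, pure standards in mixtures of ~100 molecules were run by HPLC coupled to a quadrupole time-of-flight mass spectrometer in positive and negative ionization mode. The column was a Zorbax Extend-C18 (2.1 × 50 mm, 1.8 μm) at 100 μL/min, eluted with water and acetonitrile each holding 0.1% formic acid, with 40 μL dead and 900 μL dwell volumes. Retention time was determined from adduct peaks chosen by software and checked manually.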
`CCN1C(=O)c2ccccc2Oc2ccc(C(=O)NCCC3=CCCCC3)cc21` gave an RP-LC retention time of 639 s.

Take `CCOc1ccc(Nc2c(-c3ccc(C(=O)O)cc3)nc3cnccn23)cc1`: the RP-LC retention time is 729 s.

The compound `Cc1ccc(N(C)C(=O)CN(C)S(=O)(=O)c2ccc3c(c2)CCCC(=O)N3)cc1` yielded an RP-LC retention time of 725 s.

Take `CC(C)(C)c1noc(-c2cccnc2-n2cnc(C(=O)Nc3cccc(F)c3)c2)n1`: the RP-LC retention time amounted to 1000 s.

Compound `CCc1ccccc1NC(=O)N1CCC2(CC1)NC(=O)c1cccc(Cl)c1N2` returned an RP-LC retention time of 766 s.

Regarding `CCn1cc(-c2ccc(OC)cc2)cc1C(=O)N1CCCC1`, the RP-LC retention time amounted to 952 s.

`CC(C)n1c(N2CCN(C(=O)COc3ccccc3)CC2)cc(=O)n(C(C)C)c1=O` registered an RP-LC retention time of 855 s.

For `Cc1nccn1Cc1noc(-c2ccccc2)n1`, the RP-LC retention time was found to be 600 s.

For `Cc1cc2nc(N3CCOCC3)n(CC(=O)Nc3cc(F)cc(F)c3)c(=O)c2n1C`, the RP-LC retention time was determined as 677 s.

`Cc1cc2c(c(=O)n(-c3ccccc3)c(=O)n2CC(=O)Nc2cccc(C(C)C)c2)n1C` displayed an RP-LC retention time of 975 s.

In turn, `O=C(NCC1CN(CC2CC2)CC12CCCCC2)Nc1cc(F)cc(F)c1` (stereo not drawn) came in with an RP-LC retention time of 760 s.

`CCSc1nnc(NC(=O)CCc2c(C)n[nH]c2C)s1` displayed an RP-LC retention time of 584 s.

The compound `CC1CN(S(=O)(=O)c2cccc(-c3cn4ccccc4n3)c2)CC(C)O1` (stereo not drawn) yielded an RP-LC retention time of 640 s.

As for `Cn1c(=O)n(C)c2cc(N3CCOCC3)c(NC(=O)COc3ccc(Cl)cc3)cc21`, the RP-LC retention time was 899 s.

Turning to `CCN(CC)CCNc1c(C)cc(CO)c(Cl)c1C`, the RP-LC retention time stood at 640 s.

For `COc1ccc(N2CCN(c3cc(SCC(=O)NCc4ccccc4OC)ncn3)CC2)cc1`, the RP-LC retention time was found to be 888 s.

Regarding `O=C(O)c1cnc(NCc2cccnc2)nc1-c1ccc(Cl)cc1`, the RP-LC retention time was 606 s.

`O=C(NC1CC1)C1CCN(S(=O)(=O)Cc2ccc(F)cc2)CC1`: the RP-LC retention time was 929 s.

In turn, `O=C(Cn1c(=O)cc(-c2nc(C3CC3)no2)c2ccccc21)NCc1ccccc1Cl` registered an RP-LC retention time of 956 s.

Compound `Cc1nc2cc(N3CCCC(C(=O)NCCN4CCOCC4)C3)cnc2nc1C` (stereo not drawn) showed an RP-LC retention time of 557 s.

In turn, `CCCn1c(-c2cccc(C(=O)NCc3ccc(C(F)(F)F)cc3)c2)nc2cccnc21` registered an RP-LC retention time of 933 s.

Take `COc1ccccc1OCCC1CCN(S(=O)(=O)c2ccc3c(c2)C(C)(C)C(=O)N3)C1` (stereo not drawn): the RP-LC retention time was determined as 902 s.

In turn, `COc1ccc(CNC(=O)C2(C)CCN(S(=O)(=O)c3cccc(Cl)c3C)CC2)cc1` showed an RP-LC retention time of 1030 s.

In the case of `Cc1ccn2cc(-c3ccc(NC(=O)c4ccccc4C(F)(F)F)cc3)nc2n1`, the RP-LC retention time amounted to 664 s.

Compound `CCn1cc(-c2nc(C(=O)Nc3cc(C)ccc3F)cs2)c2cccnc21` came in with an RP-LC retention time of 1240 s.

Turning to `Cc1nc(-c2cc(S(=O)(=O)N3CCC(C(=O)NCc4cccs4)CC3)c(C)s2)no1`, the RP-LC retention time was 882 s.

Compound `O=C(C1CCCN(c2cnc3nccnc3c2)C1)N1CCN(C2CCCCC2)CC1` (stereo not drawn) showed an RP-LC retention time of 567 s.

Take `O=C(NCCCN1CCOCC1)c1cc2n(n1)CCCN(Cc1ccccc1)C2=O`: the RP-LC retention time was determined as 594 s.

Turning to `CCSc1ccccc1C(=O)N1CCN(c2ccc(-c3ccccn3)nn2)CC1`, the RP-LC retention time was 649 s.

Take `Cc1noc(C)c1-c1ccc(S(=O)(=O)NCCc2ccccc2)cc1`: the RP-LC retention time worked out at 957 s.

Compound `CCOc1ccccc1NC(=O)Cn1nc(C(=O)N2CCCC2)c2ccccc21` displayed an RP-LC retention time of 917 s.

`Cc1ccc(-c2nnc(-c3ccc(Cl)c(S(=O)(=O)N(C)C)c3)o2)cc1` showed an RP-LC retention time of 1040 s.

`CCc1ccc2nc(Nc3nc(C)c4c(n3)CCCC4)nc(C)c2c1`: the RP-LC retention time stood at 754 s.
